From patent US20050100529A1, “Methods of using and compositions comprising immunomodulatory compounds for the treatment and management of asbestos-related diseases and disorders” (priority 2003, published 2005)

Experiments:
[1] = solvent systems, humidity or heating as worded; cited from earlier work
[2] = crystalline polymorph of 3-(4-amino-1-oxo-1,3 dihydro-isoindol-2-yl)-piperidine-2,6-dione; cited from earlier work
IL10 = assay: LPS-stimulated production of IL10 by PBMC; type: cell-based
TNF-α [3] = assay: Inhibition of TNF-α production following LPS-stimulation of human whole blood; type: cell-based; conditions: LPS-stimulated, in vitro, read-out: IC50 for inhibiting production of TNF-α following LPS-stimulation of human whole blood
Description: (§1) In a specific embodiment, inhibitions of TNF-α production following LPS-stimulation of human PBMC and human whole blood by 3-(4-amino-1-oxo-1,3-dihydro-isoindol-2-yl)-piperidine-2,6-dione, 4-(amino)-2-(2,6-dioxo-(3-piperidyl))-isoindoline-1,3-dione or thalidomide were investigated in vitro.

IL6 = assay: LPS-stimulated production of IL6 by PBMC; type: cell-based
TNF-α [4] = assay: Inhibition of TNF-α production following LPS-stimulation of human PBMC; type: cell-based; conditions: for IC50: human PBMC, LPS-stimulated, in vitro, read-out: IC50 for inhibiting production of TNF-α following LPS-stimulation of PBMC
Description: as §1

IL1β = assay: LPS-stimulated production of IL1β by PBMC; type: cell-based
mesothelioma patients = assay: Clinical studies in unresectable or relapsed mesothelioma patients; type: in vivo, human; conditions: 10 mg as a continuous oral daily dose
Procedure: Clinical trials with the administration of an immunomodulatory compound in an amount of from about 1 mg to about 1,000 mg, from about 1 mg to about 500 mg, or from about 1 mg to about 250 mg per day are conducted in patients with asbestosis, malignant mesothelioma, or malignant pleural effusion mesothelioma syndrome. In a specific embodiment, patients receive about 1 mg to about 150 mg/day of 3-(4-amino-1-oxo-1,3-dihydro-isoindol-2-yl)-piperidine-2,6-dione alone or in combination with vinorelbine. Patients who experience clinical benefit are permitted to continue on treatment.
Other clinical studies are performed using 3-(4-amino-1-oxo-1,3-dihydro-isoindol-2-yl)-piperidine-2,6-dione in unresectable or relapsed mesothelioma patients that have not responded to conventional therapy. In one embodiment, 3-(4-amino-1-oxo-1,3-dihydro-isoindol-2-yl)-piperidine-2,6-dione is administered in an amount of about 1 mg to about 150 mg/day to the patients. Treatment with 10 mg as a continuous oral daily dose is well-tolerated.

Structure (SMILES) | Stability / interconversion of the polymorphic form [1] | Hygroscopicity [2] | IC50 (TNF-α [4]) [nM] | IC50 (TNF-α [4]; same value in mass units) [µg/mL] | also measured
Nc1cccc2c1CN(C1CCC(=O)NC1=O)C2=O (stereo not drawn) [Form A, 3-(4-amino-1-oxo-1,3 dihydro-isoindol-2-yl)-piperidene-2,6-dione] | most thermodynamically stable anhydrous polymorph | weakly or not hygroscopic | – | – | –
Nc1cccc2c1CN(C1CCC(=O)NC1=O)C2=O (stereo not drawn) [Form B, 3-(4-amino-1-oxo-1,3 dihydro-isoindol-2-yl)-piperidene-2,6-dione] | converts to Form E in aqueous solvent systems | – | – | – | –
Nc1cccc2c1CN(C1CCC(=O)NC1=O)C2=O (stereo not drawn) [Form D, 3-(4-amino-1-oxo-1,3 dihydro-isoindol-2-yl)-piperidene-2,6-dione] | convert to Form B when stressed at higher relative humidities | either weakly or not hygroscopic | – | – | –
Nc1cccc2c1C(=O)N(C1CCC(=O)NC1=O)C2=O (stereo not drawn) [4-(amino)-2-(2,6-dioxo(3-piperidyl))-isoindoline-1,3-dione] | – | – | ~24 | ~0.00655 | Effect on production of the anti-inflammatory cytokine IL10 (IL10): increased production; IC50 (TNF-α [3]): ~25 nM; IC50 (TNF-α [3]; same value in mass units): ~0.00683 µg/mL; Effect on LPS-stimulated production of IL6 by PBMC (IL6): dose-dependent inhibition; Effect on LPS-stimulated production of TNF-α by PBMC (TNF-α [4]): dose-dependent inhibition; Effect on LPS-stimulated production of IL1β by PBMC (IL1β): dose-dependent inhibition
Nc1cccc2c1CN(C1CCC(=O)NC1=O)C2=O (stereo not drawn) [Form C, 3-(4-amino-1-oxo-1,3 dihydro-isoindol-2-yl)-piperidene-2,6-dione] | can convert to Form B at higher relative humidities | not hygroscopic below about 85% RH | – | – | –
Nc1cccc2c1CN(C1CCC(=O)NC1=O)C2=O (stereo not drawn) [Form E, 3-(4-amino-1-oxo-1,3 dihydro-isoindol-2-yl)-piperidene-2,6-dione] | In aqueous solvent systems, Form E appears to be the most stable form | – | – | – | –
O=C1CCC(N2C(=O)c3ccccc3C2=O)C(=O)N1 (racemic) [Thalidomide, thalidomide, reference compound] | – | – | ~194000 | ~50.1 | –
Nc1cccc2c1CN(C1CCC(=O)NC1=O)C2=O (stereo not drawn) [3-(4-amino-1-oxo-1,3-dihydro-isoindol-2-yl)-piperidine-2,6-dione] | – | – | ~100 | ~0.0259 | Effect on production of the anti-inflammatory cytokine IL10 (IL10): increased production; Tolerability (mesothelioma patients): well-tolerated; IC50 (TNF-α [3]): ~480 nM; IC50 (TNF-α [3]; same value in mass units): ~0.104 µg/mL; Effect on LPS-stimulated production of IL6 by PBMC (IL6): dose-dependent inhibition; Effect on LPS-stimulated production of TNF-α by PBMC (TNF-α [4]): dose-dependent inhibition; Effect on LPS-stimulated production of IL1β by PBMC (IL1β): dose-dependent inhibition
